Measurements published in patent publication US20250257064A1, “TRIFLUOROMETHYL-SUBSTITUTED SULFONAMIDE AS BCL-2-SELECTIVE INHIBITOR” (Chia Tai Tianqing Pharmaceutical Group Co., Ltd., priority 2018, published 2025).

Columns and labels:
[1] = tested on: human platelet Caspase-3 activity; assay: Human platelet toxicity experiment (Caspase-3 activity assay); assay type: cell-based; settings: 90 min, data normalized, reference ABT-199
Procedure: Experimental Example 6: Human Platelet Toxicity Experiment (Caspase-3 Activity Assay)
10 mL of human whole blood was collected using a heparin sodium anticoagulation tube, mixed well by turning upside down, and centrifuged at 90 g for 10 min. The supernatant was collected and centrifuged at 1950 g for 10 min. The supernatant was discarded, and the residue was resuspended in 4 mL of PBS, and centrifuged at 1190 g for 5 min, and the procedure was repeated once. The supernatant was discarded, and the platelets were resuspended in PBS and adjusted to the density of 2-3×10^8 cells/mL. Cells were seeded into a 96-well plate at a density of 2-3×10^7 cells/mL and at 100 μL/well. 50 μL of control buffer was added to each negative control well, and 50 μL of compound at a corresponding concentration was added to each compound well, so that the final concentration of the compound was 2.5 μM, 2 μM, 1 μM or 0.5 μM, followed by incubation in an incubator at 37° C. for 90 min. The liquids in the 96-well plate were transferred to 1.5 mL centrifuge tubes, respectively. The tubes were centrifuged at 4° C. and 6000 g for 5 min, and placed on ice for later use after the supernatant was discarded. 5× lysis buffer was diluted into 1× lysis buffer with water in the kit, and protease inhibitor cocktail was added at a 1:200 ratio to prepare a lysis mixture for later use. 40 μL of lysis mixture was added to each centrifuge tube, and the platelets at the bottom were resuspended using a pipette. The suspension was lysed on ice for 15-20 min and centrifuged at 4° C. and 14,000 g for 10 min. The sample was sub-packaged for later use. 10× assay buffer was diluted into 1× assay buffer with water in the kit, and substrate Ac-DEVD-AMC was added at a 1:600 ratio to prepare a reaction mixture. 5 μL of assay buffer and 40 μL of reaction mixture were added to each blank control well. 5 μL of control platelet lysate and 40 μL of reaction mixture were added to each negative control well. 5 μL of platelet lysate and 40 μL of reaction mixture were added to each compound well. In this procedure, 40 μL of reaction mixture was added at last. The resulting mixture was mixed gently, and the plate was read by a PE Envision multi-functional microplate reader (excitation: 360 nm, emission: 460 nm) once every 10 min for 6 times. Caspase-3 activity was determined based on the intensity of the released AMC fluorescence, that is the slope of the fitted line to which each well corresponds represents Caspase activity (all data were normalized and the reference was ABT-199).

BCL-XL/BAK = target: T1, BCL-XL/BAK (Homo sapiens, UniProt Q07817); assay: Screening on inhibitory activity for BCL-XL/BAK binding (Cisbio HTRF kit)
T1 construct: purchased Cisbio
Summary of the method: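 Tag1-BCL-XL and Tag2-BAK (2 nM and 80 nM before mixing) were combined with compounds at final 2000–0.488 nM (4-fold, 7 points, duplicates) for 15 min at 25° C. Eu3+ anti-Tag1 and XL665 anti-Tag2 were then added for ≥2 h at 25° C. HTRF (620/665 nm) gave IC50 by four-parameter fit.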

BCL-2/BAK = target: T2, BCL-2/BAK (Homo sapiens, UniProt P10415); assay: Screening on inhibitory activity for BCL-2/BAK binding (Cisbio HTRF kit)
T2 construct: purchased Cisbio
Summary of the method: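 HTRF competition assay: Tag1-BCL-2 and Tag2-BAK working dilutions were 5 nM and 120 nM. Compound (200–0.0488 nM final, 4-fold, 7 points, duplicates) was incubated with the proteins for 15 min at 25 °C, then with Eu-cryptate/XL665 antibodies for ≥2 h at 25 °C. IC50 was derived from a four-parameter fit.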

RS4;11 cells = assay: Inhibitory effect on proliferation of RS4;11 cells (CCK-8); assay type: cell-based, human
Summary of the method: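 RS4;11 cells were seeded at 1×10^5 cells/mL in RPMI with 5% FBS and incubated 24 h at 37° C, 5% CO2 before compound addition in duplicate. Inhibition was calculated against untreated and blank controls. IC50 came from a four-parameter fit of log concentration versus inhibition.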

[2] = In vitro stability in human liver microsomes; assay type: in vitro ADME; settings: 1 μM
Procedure: (§1) Experimental Example 3: In Vitro Stability in Liver Microsome
(§2) 300 μL of the final incubation system contains 30 μL of liver microsomes (protein concentration: 5 mg/mL), 30 μL of NADPH+MgCl2, 3 μL of the test compound (in acetonitrile), and 237 μL of PBS buffer (pH 7.4), wherein the proportion of the organic solvent (acetonitrile) is 1% (volume ratio). Two duplicate samples were prepared for each specie (mouse, rat and human), and each sample was 0.3 mL. Each tube which was added with 270 μL of a mixed solution of substrate and enzyme, and NADPH, after being pre-incubated at 37° C. for 5 min, was added with 30 μL of NADPH+MgCl2 and mixed. Then 50 μL of the mixture was taken at 0 min, 15 min, 30 min and 60 min, and added with 300 μL of glacial acetonitrile containing an internal standard to terminate the reaction.
(§3) 50 μL of the incubated sample was added with 300 μL of glacial acetonitrile containing an internal standard (20 ng/mL diazepam) for precipitation, vortexed for 5 min, and centrifuged (13,000 rpm, 20° C.) for 10 min. 70 μL of supernatant was taken and diluted with 70 μL of ultrapure water. After being mixed well, 1 μL of the resulting sample was injected for analysis.

[3] = In vitro stability in rat liver microsomes; assay type: in vitro ADME; settings: 1 μM
Procedure: as §1, §2, §3

[4] = In vitro stability in mouse liver microsomes; assay type: in vitro ADME; settings: 1 μM
Procedure: as §1, §2, §3

T2 sequence (P10415 whole entry, species assumed): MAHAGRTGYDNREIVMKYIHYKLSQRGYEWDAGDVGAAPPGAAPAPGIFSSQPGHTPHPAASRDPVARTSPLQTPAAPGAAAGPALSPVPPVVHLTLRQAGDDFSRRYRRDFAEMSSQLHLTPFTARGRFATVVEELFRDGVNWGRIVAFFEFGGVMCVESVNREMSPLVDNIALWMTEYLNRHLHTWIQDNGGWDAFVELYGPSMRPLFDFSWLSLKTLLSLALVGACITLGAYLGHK
T1 sequence (Q07817 whole entry, species assumed): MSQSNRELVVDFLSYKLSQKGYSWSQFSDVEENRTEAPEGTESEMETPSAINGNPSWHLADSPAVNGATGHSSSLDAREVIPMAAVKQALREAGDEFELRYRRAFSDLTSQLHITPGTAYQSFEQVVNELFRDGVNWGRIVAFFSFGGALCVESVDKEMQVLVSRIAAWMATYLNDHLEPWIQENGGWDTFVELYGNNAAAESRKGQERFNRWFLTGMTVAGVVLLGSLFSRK

CC(=O)N1CCO[C@H](CNc2ccc(S(=O)(=O)NC(=O)c3ccc(N4CCN(CC5=C(c6ccc(C(F)(F)F)cc6Cl)CC(C)(C)CC5)CC4)cc3Oc3cnc4[nH]ccc4c3)cc2[N+](=O)[O-])C1 [Compound 65-1, (R)-4-(4-{[2-(2-chloro-4-trifluoromethylphenyl)-4,4-dimethylcyclohex-1-enyl]methyl}-piperazin-1-yl)-N-({3-nitro-4-[((4-acetylmorpholin-2-yl)methyl)amino]phenyl}sulfonyl)-2-(1H-pyrrolo[2,3-b]pyridin-5-yloxy)-benzamide]
human platelet Caspase-3 activity, Slope ([1]; compound concentration 0.5 μM): 0.44 | human platelet Caspase-3 activity, Slope ([1]; compound concentration 2 μM): 0.43 | IC50 (BCL-XL/BAK): 134 nM | IC50 (BCL-2/BAK): 1.5 nM | IC50 (RS4;11 cells; Homo sapiens, RS4-11, 72 h): 1.8 nM

CCS(=O)(=O)N1CCOC(CNc2ccc(S(=O)(=O)NC(=O)c3ccc(N4CCN(CC5=C(c6ccc(C(F)(F)F)cc6Cl)CC(C)(C)CC5)CC4)cc3Oc3cnc4[nH]ccc4c3)cc2[N+](=O)[O-])C1 (stereo not drawn) [Compound 57-1, 4-(4-{[2-(2-chloro-4-trifluoromethylphenyl)-4,4-dimethylcyclohex-1-enyl]methyl}-piperazin-1-yl)-N-({3-nitro-4-[((4-(ethylsulfonyl)morpholin-2-yl)methyl)amino]phenyl}sulfonyl)-2-(1H-pyrrolo[2,3-b]pyridin-5-yloxy)-benzamide]
human platelet Caspase-3 activity, Slope ([1]; compound concentration 0.5 μM): 0.08 | human platelet Caspase-3 activity, Slope ([1]; compound concentration 2 μM): 0.04 | IC50 (BCL-XL/BAK): 268 nM | IC50 (BCL-2/BAK): 3.4 nM | IC50 (RS4;11 cells; Homo sapiens, RS4-11, 72 h): 2.3 nM

CC(C)C(=O)N1CCOC(CNc2ccc(S(=O)(=O)NC(=O)c3ccc(N4CCN(CC5=C(c6ccc(C(F)(F)F)cc6Cl)CC(C)(C)CC5)CC4)cc3Oc3cnc4[nH]ccc4c3)cc2[N+](=O)[O-])C1 (stereo not drawn) [Compound 10-1, 4-(4-{[2-(2-chloro-4-trifluoromethylphenyl)-4,4-dimethylcyclohex-1-enyl]methyl}-piperazin-1-yl)-N-({3-nitro-4-[((4-isobutyrylmorpholin-2-yl)methyl)amino]phenyl}sulfonyl)-2-(1H-pyrrolo[2,3-b]pyridin-5-yloxy)-benzamide]
IC50 (BCL-XL/BAK): 194 nM | IC50 (BCL-2/BAK): 2.8 nM | Human Residual content after 60 min (%) [2]: 78.0% | Rat Residual content after 60 min (%) [3]: 69.9% | IC50 (RS4;11 cells; Homo sapiens, RS4-11, 72 h): 5.6 nM | Mouse Residual content after 60 min (%) [4]: 30.1%

CC1(C)CCC(CN2CCN(c3ccc(C(=O)NS(=O)(=O)c4ccc(NC[C@@H]5CCCOC5)c([N+](=O)[O-])c4)c(Oc4cnc5[nH]ccc5c4)c3)CC2)=C(c2ccc(C(F)(F)F)cc2Cl)C1 [Compound 43-1, (S)-4-(4-{[2-(2-chloro-4-trifluoromethylphenyl)-4,4-dimethylcyclohex-1-enyl]methyl}-piperazin-1-yl)-N-({3-nitro-4-[((tetrahydropyran-3-yl)methyl)amino]phenyl}sulfonyl)-2-(1H-pyrrolo[2,3-b]pyridin-5-yloxy)-benzamide]
human platelet Caspase-3 activity, Slope ([1]; compound concentration 0.5 μM): 0.19 | human platelet Caspase-3 activity, Slope ([1]; compound concentration 2 μM): 0.09 | IC50 (BCL-XL/BAK): 121 nM | IC50 (BCL-2/BAK): 1.8 nM | IC50 (RS4;11 cells; Homo sapiens, RS4-11, 72 h): 1.9 nM

CC1(C)CCC(CN2CCN(c3ccc(C(=O)NS(=O)(=O)c4ccc(NC[C@@H]5COCCO5)c([N+](=O)[O-])c4)c(Oc4cnc5[nH]ccc5c4)c3)CC2)=C(c2ccc(C(F)(F)F)cc2Cl)C1 [Compound 7-1]
human platelet Caspase-3 activity, Slope ([1]; compound concentration 1 μM): 0.48 | IC50 (BCL-XL/BAK): 289 nM | IC50 (BCL-2/BAK): 3.5 nM | IC50 (RS4;11 cells; 72 h): 4.6 nM

CN1CCC(CCCNc2ccc(S(=O)(=O)NC(=O)c3ccc(N4CCN(CC5=C(c6ccc(C(F)(F)F)cc6Cl)CC(C)(C)CC5)CC4)cc3Oc3cnc4[nH]ccc4c3)cc2[N+](=O)[O-])CC1 [Compound 17-1, 4-(4-{[2-(2-chloro-4-trifluoromethylphenyl)-4,4-dimethylcyclohex-1-enyl]methyl}-piperazin-1-yl)-N-({3-nitro-4-[(3-(1-methylpiperidin-4-yl)propyl)amino]phenyl}sulfonyl)-2-(1H-pyrrolo[2,3-b]pyridin-5-yloxy)-benzamide]
human platelet Caspase-3 activity, Slope ([1]; compound concentration 1 μM): 0.48 | IC50 (BCL-2/BAK): 2 nM | IC50 (RS4;11 cells; Homo sapiens, RS4-11, 72 h): 2.9 nM

CC1(C)CCC(CN2CCN(c3ccc(C(=O)NS(=O)(=O)c4ccc(NCCC5CCN(CCF)CC5)c([N+](=O)[O-])c4)c(Oc4cnc5[nH]ccc5c4)c3)CC2)=C(c2ccc(C(F)(F)F)cc2Cl)C1 [Compound 20-1, 4-(4-{[2-(2-chloro-4-trifluoromethylphenyl)-4,4-dimethylcyclohex-1-enyl]methyl}-piperazin-1-yl)-N-({3-nitro-4-[(2-(1-(2-fluoroethyl)piperidin-4-yl)ethyl)amino]phenyl}sulfonyl)-2-(1H-pyrrolo[2,3-b]pyridin-5-yloxy)-benzamide]
human platelet Caspase-3 activity, Slope ([1]; compound concentration 1 μM): 0.37 | IC50 (BCL-2/BAK): 2.1 nM | IC50 (RS4;11 cells; Homo sapiens, RS4-11, 72 h): 3.9 nM

CC(=O)N1CCOC(CNc2ccc(S(=O)(=O)NC(=O)c3ccc(N4CCN(CC5=C(c6ccc(C(F)(F)F)cc6Cl)CC(C)(C)CC5)CC4)cc3Oc3cnc4[nH]ccc4c3)cc2[N+](=O)[O-])C1 (stereo not drawn) [Compound 9-1, 4-(4-{[2-(2-chloro-4-trifluoromethylphenyl)-4,4-dimethylcyclohex-1-enyl]methyl}-piperazin-1-yl)-N-({3-nitro-4-[((4-acetylmorpholin-2-yl)methyl)amino]phenyl}sulfonyl)-2-(1H-pyrrolo[2,3-b]pyridin-5-yloxy)-benzamide]
IC50 (BCL-2/BAK): 1.8 nM | Human Residual content after 60 min (%) [2]: 69.8% | Rat Residual content after 60 min (%) [3]: 101.7% | IC50 (RS4;11 cells; Homo sapiens, RS4-11, 72 h): 2.7 nM | Mouse Residual content after 60 min (%) [4]: 55.7%

CCN1CCC(CCNc2ccc(S(=O)(=O)NC(=O)c3ccc(N4CCN(CC5=C(c6ccc(C(F)(F)F)cc6Cl)CC(C)(C)CC5)CC4)cc3Oc3cnc4[nH]ccc4c3)cc2[N+](=O)[O-])CC1 [Compound 19-1, 4-(4-{[2-(2-chloro-4-trifluoromethylphenyl)-4,4-dimethylcyclohex-1-enyl]methyl}-piperazin-1-yl)-N-({3-nitro-4-[(2-(1-ethylpiperidin-4-yl)ethyl)amino]phenyl}sulfonyl)-2-(1H-pyrrolo[2,3-b]pyridin-5-yloxy)-benzamide]
human platelet Caspase-3 activity, Slope ([1]; compound concentration 1 μM): 0.12 | IC50 (BCL-2/BAK): 2.5 nM | IC50 (RS4;11 cells; Homo sapiens, RS4-11, 72 h): 3.5 nM
